Data on four compounds can be found in patent publication US8563545B2, “Compound useful for the treatment of degenerative and inflammatory diseases” (Galapagos NV, priority 2009, dated 2013).

SMILES strings stand for the structures. Read-outs that look alike come from different tables or passages of the source.

One data set addresses JAK1 (Homo sapiens (Human), UniProt P23458). Briefly: JAK1 inhibition assay. Type of data set: biochemical. On the procedure:
(§1) Plates were washed 6 times with 300 μL per well of a 75 mM phosphoric acid solution and the bottom of the plates was sealed. 40 μL/well of Microscint-20 was added, the top of the plates was sealed and readout was performed using the Topcount (Perkin Elmer). Kinase activity was calculated by subtracting counts per minute (cpm) obtained in the presence of a positive control inhibitor (10 μM staurosporine) from cpm obtained in the presence of vehicle. The ability of a test compound to inhibit this activity was determined as:
(§2) Percentage inhibition=((cpm determined for sample with test compound present−cpm determined for sample with positive control inhibitor)divided by(cpm determined in the presence of vehicle−cpm determined for sample with positive control inhibitor))*100.
Dose dilution series were prepared for the compounds enabling the testing of dose-response effects in the JAK1 assay and the calculation of the IC50 for each compound.

Data set [1] has as its system JAK1-dependent signaling pathway (IFNα induced pSTAT1) in human whole blood. Briefly: tissue or blood. The conditions noted are these: read-out: pIC50 for inhibiting the INFα induced increase of pSTAT1 levels (converted). The protocol:
The samples were incubated at 37° C. for 30 min.
Absorbance was measured at 450 nm.

Data set [2] is described as follows: Steady state PK in rat CIA model. In kind it is in vivo. The conditions noted are these: plasma; for AUC(0-t): read-out: AUC (0-24 h); for half-life: read-out: T½ (converted). On the procedure: At day 7 or 11, blood samples were collected at the retro-orbital sinus with lithium heparin as anti-coagulant at the following time points: predose, 1, 3 and 6 hrs. Whole blood samples were centrifuged and the resulting plasma samples were stored at −20° C. pending analysis. Plasma concentrations of each test compound were determined by an LC-MS/MS method in which the mass spectrometer was operated in positive electrospray mode. Pharmacokinetic parameters were calculated using Winnonlin® (Pharsight®, United States) and it was assumed that the predose plasma levels were equal to the 24 hrs plasma levels.

In the next data set the test system is rat CIA model. In words: Rat collagen induced arthritis (CIA) model. In kind it is in vivo. Further details: key to Clinical Assessment End point score / Clinical Assessment AUC Score / Paw swelling / Larsen' Score: a “*” indicates that there was a statistically significant improvement in the score, p 0.05 vs. untreated control. On the procedure: Completed Freund's adjuvant (CFA) and incomplete Freund's adjuvant (IFA) were purchased from Difco. Bovine collagen type II (CII), lipopolysaccharide (LPS), and Enbrel was obtained from Chondrex (Isle d'Abeau, France); Sigma (P4252, L′Isle d'Abeau, France), Whyett (25 mg injectable syringe, France) Acros Organics (Palo Alto, Calif.), respectively. All other reagents used were of reagent grade and all solvents were of analytical grade.
Dark Agouti rats (male, 7-8 weeks old) were obtained from Harlan Laboratories (Maison-Alfort, France). Rats were kept on a 12 hr light/dark cycle (0700-1900). Temperature was maintained at 22° C., and food and water were provided ad libitum.
One day before the experiment, CII solution (2 mg/mL) was prepared with 0.05 M acetic acid and stored at 4° C. Just before the immunization, equal volumes of adjuvant (IFA) and CII were mixed by a homogenizer in a pre-cooled glass bottle in an ice water bath. Extra adjuvant and prolonged homogenization may be required if an emulsion is not formed. 0.2 mL of the emulsion was injected intradermally at the base of the tail of each rat on day 1, a second booster intradermal injection (CII solution at 2 mg/mL in CFA 0.1 mL saline) was performed on day 9. This immunization method was modified from published methods (Sims et al, 2004; Jou et al., 2005).
The therapeutic effects of the compounds were tested in the rat CIA model. Rats were randomly divided into equal groups and each group contained 10 rats. All rats were immunized on day 1 and boosted on day 9. Therapeutic dosing lasted from day 16 to day 30. The negative control group was treated with vehicle (MC 0.5%) and the positive control group with Enbrel (10 mg/kg, 3× week, s.c.). A compound of interest was typically tested at 3 doses, e.g. 3, 10, 30 mg/kg, p.o.
Arthritis is scored according to the method of Khachigian 2006, Lin et al 2007 and Nishida et al. 2004). The swelling of each of the four paws is ranked with the arthritic score as follows: 0-no symptoms; 1-mild, but definite redness and swelling of one type of joint such as the ankle or wrist, or apparent redness and swelling limited to individual digits, regardless of the number of affected digits; 2-moderate redness and swelling of two or more types of joints; 3-severe redness and swelling of the entire paw including digits; 4-maximally inflamed limb with involvement of multiple joints (maximum cumulative clinical arthritis score 16 per animal) (Nishida et al., 2004).
The area under the curve (AUC) from day 1 to day 14 was calculated for each individual rat. The AUC of each animal was divided by the average AUC obtained for the vehicle in the study from which the data on that animal was obtained and multiplied by 100 (i.e. the AUC was expressed as a percentage of the average vehicle AUC per study).
The clinical score difference for each animal was divided by the average clinical score difference obtained for the vehicle in the study from which the data on that animal was obtained and multiplied by 100 (i.e. the difference was expressed as a percentage of the average clinical score difference for the vehicle per study).
X-ray photos were taken of the hind paws of each individual animal. […]

For another data set, the target named is JAK3 (Homo sapiens (Human), UniProt P52333). In words: JAK3 inhibition assay. In kind it is biochemical. The protocol:
as §1, §2
Dose dilution series were prepared for the compounds enabling the testing of dose-response effects in the JAK3 assay and the calculation of the IC50 for each compound.

A further data set addresses TYK2 (Homo sapiens (Human), UniProt P29597). In words: TYK2 inhibition assay. In kind it is biochemical. On the procedure:
as §1, with “After 90 min at 30° C., reactions were stopped by adding 25 μL/well of 150 mM phosphoric acid. […] Plates” for “Plates”
as §2
Dose dilution series were prepared for the compounds enabling the testing of dose-response effects in the TYK2 assay and the calculation of the IC50 for each compound.

The mark [3] stands for this setting: 0.1 mg/kg/day, normalized score.
Setting [4] is: 0.3 mg/kg/day, normalized score.

Sequence of TYK2 (P29597 871-1187): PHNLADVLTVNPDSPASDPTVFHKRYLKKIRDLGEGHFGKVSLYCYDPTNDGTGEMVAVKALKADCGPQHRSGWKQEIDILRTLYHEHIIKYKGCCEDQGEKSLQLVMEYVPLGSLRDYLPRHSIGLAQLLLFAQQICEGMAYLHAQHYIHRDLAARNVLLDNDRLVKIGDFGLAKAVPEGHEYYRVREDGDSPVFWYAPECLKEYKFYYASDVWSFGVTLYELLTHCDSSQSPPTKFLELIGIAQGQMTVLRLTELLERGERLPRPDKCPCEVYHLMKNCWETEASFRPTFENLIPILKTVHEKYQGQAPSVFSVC
Sequence of JAK3 (P52333 781-1124): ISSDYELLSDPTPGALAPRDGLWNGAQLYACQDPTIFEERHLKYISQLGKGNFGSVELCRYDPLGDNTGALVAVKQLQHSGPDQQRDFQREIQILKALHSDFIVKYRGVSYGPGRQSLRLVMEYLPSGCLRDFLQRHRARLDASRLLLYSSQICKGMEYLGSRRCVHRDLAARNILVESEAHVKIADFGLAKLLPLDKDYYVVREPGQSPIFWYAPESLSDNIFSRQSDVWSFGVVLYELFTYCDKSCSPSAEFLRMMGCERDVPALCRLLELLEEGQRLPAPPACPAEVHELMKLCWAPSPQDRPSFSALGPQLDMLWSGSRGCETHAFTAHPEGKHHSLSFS
Sequence of JAK1 (P23458 850-1154): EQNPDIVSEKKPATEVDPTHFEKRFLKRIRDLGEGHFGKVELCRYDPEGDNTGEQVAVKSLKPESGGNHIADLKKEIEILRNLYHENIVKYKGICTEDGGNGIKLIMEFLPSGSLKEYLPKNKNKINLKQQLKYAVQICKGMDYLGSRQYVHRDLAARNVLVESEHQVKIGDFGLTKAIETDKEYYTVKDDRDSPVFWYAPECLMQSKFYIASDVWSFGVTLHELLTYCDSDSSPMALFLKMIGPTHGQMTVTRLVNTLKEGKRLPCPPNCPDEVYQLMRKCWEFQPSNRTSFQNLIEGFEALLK

Regarding `O=C(Nc1nc2cccc(-c3ccc(C(=O)N4CCS(=O)(=O)CC4)cc3)n2n1)C1CC1` [Compound 10, Cyclopropanecarboxylic acid {5-[4-(1,1-dioxo-1-thiomorpholine-4-carbonyl)-phenyl]-[1,2,4]triazolo [1,5-a]pyridin-2-yl}-amide], on JAK1, the IC50 came out at 18.2 nM.

For `O=C(Nc1nc2cccc(-c3ccc(CN4CCS(=O)(=O)CC4)cc3)n2n1)C1CC1` [Compound 1, Cyclopropanecarboxylic acid {5-[4-(1,1-dioxo-1-thiomorpholin-4-ylmethyl)-phenyl]-[1,2,4]triazolo [1,5-a]pyridin-2-yl}-amide], the IC50 in data set [1] is 589 nM. The maximum concentration (Cmax) in data set [2] (PO 0.1 mg/kg/day) came to 5.18 ng/mL; in data set [2] (PO 0.3 mg/kg/day), 19.3 ng/mL; in data set [2] (PO 1 mg/kg/day), 102 ng/mL; in data set [2] (PO 3 mg/kg/day), 363 ng/mL; in data set [2] (PO 10 mg/kg/day), 1170 ng/mL; in data set [2] (PO 30 mg/kg/day), 3800 ng/mL. The Tmax is 3 h in data set [2] (PO 0.1 mg/kg/day); 1 h in data set [2] (PO 0.3 mg/kg/day); 1 h in data set [2] (PO 1 mg/kg/day); 1 h in data set [2] (PO 3 mg/kg/day); 1 h in data set [2] (PO 10 mg/kg/day); 1 h in data set [2] (PO 30 mg/kg/day). Besides, the AUC(0-t) in data set [2] (PO 0.1 mg/kg/day) turned out to be 30 ng·h/mL; in data set [2] (PO 0.3 mg/kg/day), 163 ng·h/mL; in data set [2] (PO 1 mg/kg/day), 931 ng·h/mL; in data set [2] (PO 3 mg/kg/day), 1930 ng·h/mL; in data set [2] (PO 10 mg/kg/day), 7170 ng·h/mL; in data set [2] (PO 30 mg/kg/day), 27800 ng·h/mL. Further, the half-life in data set [2] (PO 1 mg/kg/day) is 216 min; in data set [2] (PO 3 mg/kg/day), 336 min; in data set [2] (PO 10 mg/kg/day) it was 270 min; in data set [2] (PO 30 mg/kg/day), 234 min. Further, in the data set on rat CIA model, the “improvement in efficacy over Compound 2 when the oral doses are compared” value worked out at 100 fold. Besides, the “Clinical Assessment AUC Score” value is on record as “*” in the data set with rat CIA model (setting [3]); “*” in the data set with rat CIA model (setting [4]); “*” in the data set with rat CIA model (1 mg/kg/day, normalized score); “*” with rat CIA model (3 mg/kg/day, normalized score). Also, the “Clinical Assessment End point score” value in the data set with rat CIA model (setting [3]) was “*”; with rat CIA model (setting [4]), “*”; in the data set on rat CIA model (1 mg/kg/day, normalized score) it was “*”; with rat CIA model (3 mg/kg/day, normalized score) it was “*”. Besides, the Paw swelling entry in the data set with rat CIA model (0.3 mg/kg/day), with rat CIA model (1 mg/kg/day) and in the data set with rat CIA model (3 mg/kg/day) was “*” throughout. Further, the “Larsen' Score” value in the data set on rat CIA model (3 mg/kg/day) is “*”. The “normalized clinical score values (AUC or difference from day 1 to day 14)” value with rat CIA model (dose of 0.1 mg/kg) is reported as “statistically significant improvements”. In addition, the paw swelling readout result in the data set with rat CIA model (dose of 0.3 mg/kg) was “statistically significant increase”. Besides, in the data set with rat CIA model (dose of 3 mg/kg), the Larsen score result was “statistically significant increase”.

The compound `O=C(Nc1nc2cccc(-c3ccc(CN4CCOCC4)cc3)n2n1)C1CC1` [Compound 2, N-(5-(4-(morpholinomethyl)phenyl)-[1,2,4]triazolo[1,5-a]pyridin-2-yl)cyclopropanecarboxamide] returned an IC50 against JAK3 of 2840 nM. Besides, in data set [2] (PO 10 mg/kg/day), the concentration peaked (Cmax) at 867 ng/mL, the time to peak (Tmax) amounted to 1 h, the AUC(0-t) stood at 2020 ng·h/mL and the half-life is 70.2 min. In data set [2] (PO 30 mg/kg/day), the peak level (Cmax) was 2630 ng/mL, the Tmax was 1 h, the AUC(0-t) came out at 7810 ng·h/mL and the half-life is 202 min. In the data set with rat CIA model (10 mg/kg/day), the “Clinical Assessment End point score” value is on record as “*”. For the same compound, in the data set with rat CIA model (30 mg/kg/day), the “Clinical Assessment End point score” value was “*”, the “Larsen' Score” value is recorded as “*” and the Paw swelling entry is reported as “*”. Besides, in the data set on rat CIA model (dose of 10 mg/kg), the “normalized clinical score values” is “statistically significant improvements”. Further, in the data set with rat CIA model (dose of 30 mg/kg), the Larsen score entry was “statistically significant increase” and the paw swelling readout entry was “statistically significant increase”. In addition, the IC50 on TYK2 is 2100 nM.

For the compound `O=C(Nc1nc2cccc(-c3ccc(CN4CCC(F)(F)CC4)cc3)n2n1)C1CC1` [Compound 11, Cyclopropanecarboxylic acid {5-[4-(4,4-difluoro-piperidin-1-ylmethyl)-phenyl]-[1,2,4]triazolo [1,5-a]pyridin-2-yl}-amide], the IC50 worked out at 7.69 nM against JAK1, 195 nM at JAK3 and 126 nM on TYK2.

One may read the Cmax as the maximum level reached in the sampled fluid or tissue. By Tmax is commonly meant the time at which the peak concentration occurs.
